The assay has as its target CDK2 (human) (UniProt P24941). The assay is described as follows: Enzyme Assay.
As for `COc1nc(C)c(-c2ccnc(Nc3ccc(Cl)cc3)n2)s1`, the IC50 (usually the concentration that gives 50% inhibition) turned out to be 110 nM.

The compound `COc1nc(C)c(-c2ccnc(Nc3ccc(F)cc3)n2)s1` yielded an IC50 of 120 nM.

On to `COc1nc(C)c(-c2ccnc(Nc3cccc([N+](=O)[O-])c3)n2)s1`, for which the IC50 amounted to 60 nM.

`COc1nc(C)c(-c2ccnc(Nc3ccc(N(C)C)cc3)n2)s1` came in with an IC50 of 750 nM.

Regarding `Cc1nc(C)c(-c2ccnc(Nc3ccc(CCO)cc3)n2)s1`, the half-inhibitory concentration (IC50) turned out to be 470 nM.

For the compound `COc1nc(C)c(-c2ccnc(Nc3ccc(C)c([N+](=O)[O-])c3)n2)s1`, the concentration for half-maximal inhibition (IC50) amounted to 110 nM.

On to `Cc1nc(N)sc1-c1ccnc(Nc2ccc(C(F)(F)F)cc2)n1`, for which the IC50 worked out at 680 nM.

In turn, `COc1ccc(Nc2nccc(-c3sc(OC)nc3C)n2)cc1` displayed an IC50 of 250 nM.

Turning to `COc1nc(C)c(-c2ccnc(Nc3ccc(C)c(I)c3)n2)s1`, the concentration for half-maximal inhibition (IC50) was found to be 700 nM.

As to `COc1nc(C)c(-c2ccnc(Nc3ccc(O)cc3)n2)s1`, the concentration for half-maximal inhibition (IC50) stood at 50 nM.

The compound `COc1nc(C)c(-c2ccnc(Nc3ccc(Cl)c(C)c3)n2)s1` showed a 50% inhibitory concentration (IC50) of 1180 nM.

On to `COc1ccc(Nc2nccc(-c3sc(C)nc3C)n2)cc1O`, for which the half-inhibitory concentration (IC50) was found to be 140 nM.

Consider `COc1nc(C)c(-c2ccnc(Nc3ccc(F)c([N+](=O)[O-])c3)n2)s1`, for which the IC50 is 120 nM.

Compound `COc1nc(C)c(-c2ccnc(Nc3cccc(O)c3)n2)s1` displayed a half-maximal inhibitory concentration (IC50) of 120 nM.

`COc1nc(C)c(-c2ccnc(Nc3ccc(F)c(C)c3)n2)s1` yielded an IC50 of 130 nM.

Values taken from the Kinase Knowledgebase extract (Sharma et al. 2016).
